Patent publication US20040101578A1, “Compositon containg ginkgo biloba that inhibit angiogenesis and matrix metalloprotinase” (priority 2003, published 2004)

Test system: human umbilical vein endothelial cells (HUVEC)
Assay: Tube formation of HUVEC grown with Matrigel
Assay type: cell-based
Conditions: for Area of the tube: 50 μM compound in DMSO, DMSO control 88; for Area of the tube %: DMSO control = 100; for inhibition at 50 µM: Homo sapiens, HUVEC, read-out: percent inhibition of the tube formation
Protocol: In order to do the tube formation assay, blood vessel endothelial cells, that Is, human umbilical vein endothellal cells (HUVECs), were isolated. HUVECs were isolated from freshly obtained cords after cesarean section, and they were grown and identified by immunocytochemial staining with anti-Factor Vil antibody. HUVECs grown with Matrigel (BD Bioscience, Bedford, Mass., USA), were treated with 0.4 μg/μl of the above Ginkgo biloba leaf extract (Hwa II Pharmaceutical Co., LTD, Korea) of the EXAMPLE 1, and further incubated at 37° C. for […]. As a control, the procedure was repeated without Ginkgo biloba leaf extract.
The area of the tube was determined by the image analysis program Image-Pro Plus (Media Cybernetics, USA), and as summarized in Table I, tube formation after treatment of Ginkgo biloba leaf extract was inhibited by about 60% as compared with the untreated control.
Representative compounds from Ginkgo biloba, quercetin (Sigma Cat No. Q0125) and kaempferol (Indofine Chemical Cat No. K-102) as flavonoids, amentoflavon (Indofine Chemical Cat No. 021101S) as a biflavonoid and ginkolide A (Sigma Cat No. G4028) as a terpene-lactone, were subjected to the tube formation assay as described in EXAMPLE 1.
Since the above chemicals are not soluble in water, they were dissolved on dimethyl sulfoxide (DMSO), and in order to exclude the effect of solvent for these compounds, HUVECs treated with the same amount of DMSO were used as a control. FIG. 6 is a picture of the 1% DMSO-treated HUVEC control, and FIGS. 7-10 are pictures showing the effect on tube formation of individual compounds (quercetin, kaempferol, amentoflavon, and ginlkolide A, respectively). At 50 μM concentration, the order of inhibitory effect on HUVEC tube formation was quercetin>kaempferol>amentoflavon>ginkgolide A. Ginkgolide A was not effective even at 1 mM concentration.
Therefore, not biflavonoids but flavonoids such as quercetin and kaempferol, are the major component for angiogenesis inhibition in Ginkgo biloba leaf extract.

[1] = 50 μM compound, versus DMSO control

Row | SMILES | Area of the tube | percent inhibition of the tube formation [1] | Area of the tube % (50 μM compound) [%] | effect on HUVEC tube formation (1 mM concentration) | inhibition at 50 µM [1] [%]
1 | O=c1cc(-c2ccc(O)c(-c3c(O)cc(O)c4c(=O)cc(-c5ccc(O)cc5)oc34)c2)oc2cc(O)cc(O)c12 [Amentoflavon, amentoflavon] | 48 | 45 | 55 | – | –
2 | C[C@@H]1C(=O)O[C@H]2C[C@@]34[C@H]5C[C@@H](C(C)(C)C)[C@]36[C@@H](OC(=O)[C@@H]6O)O[C@@]4(C(=O)O5)[C@]21O [Ginkgolide A, ginkolide A] | – | – | – | not effective | –
3 | O=c1c(O)c(-c2ccc(O)cc2)oc2cc(O)cc(O)c12 [Kaempferol, kaempferol] | 24 | – | 27 | – | 73
4 | O=c1c(O)c(-c2ccc(O)c(O)c2)oc2cc(O)cc(O)c12 [Quercetin, quercetin] | 6.6 | – | 7.5 | – | 93
